Experimental data reported in publication PMC6121902, “Conjugation with Dihydrolipoic Acid Imparts Caffeic Acid Ester Potent Inhibitory Effect on Dopa Oxidase Activity of Human Tyrosinase” (International Journal of Molecular Sciences, 2018).
Entries after “also recorded” stand apart in the source; their conditions may differ.

Experiments:
HBL cells = test: MTT viability assay; format: cell-based, human; details: 25 or 50 μM, 24 h
Procedure: The effect of the inhibitors on cell viability was evaluated by phase contrast microscopy and by means of the 3-(4,5-dimethyl-2-thiazolyl)-2,5-diphenyl-2H-tetrazolium bromide (MTT) assay. HBL cells were treated with the compounds (25 or 50 μM) for 24 h. At the end of the incubation period, phase contrast images were taken and the MTT assay was performed to test the cytotoxicity of each compound.
Figure 4 Effect of caffeic acid derivatives on the viability of HBL cells. Cells were incubated for 24 h with the inhibitors at 25 or 50 µM. (a) Phase contrast microscopy images. Representative images are shown (n = 8) Bar size: 50 μm. (b) MTT viability assay. Cells were grown in 96-well plates to ~80% confluence in the presence or absence of the indicated compounds. After 24 h, MTT was added (1 mg/mL final concentration) and maintained in the culture media for 4 h. Cells were PBS-washed twice and solubilized in DMSO. Absorbance at 562 nm was measured and represented as a percentage of the control value. The mean ± SEM of 8 independent experiments is shown. **** p < 0.0001.
Cell viability was measured by the MTT assay. HBL cells were seeded into the wells of a 96-wells plate at a density of 10,000 cells in 200 μL cell culture media. The seeded cells were incubated for 18 h at 37 °C, then treated with the compounds (25 or 50 μM) for 24 h or left untreated. At the end of the incubation period, images were taken and the MTT assay was performed to test the cytotoxicity of the different caffeic acid derivatives.

mushroom tyrosinase [1] = test: Mushroom tyrosinase TH activity inhibition (dopachrome formation at 475 nm, L-tyrosine substrate); format: biochemical; details: 10 min pre-incubation, L-tyrosine 1 mM, tyrosinase 20 U/mL, pH 6.8
Procedure: The inhibition properties of LCAME were preliminarily investigated on mushroom tyrosinase by spectrophotometric monitoring of dopachrome formation, a method which is routinely used for evaluation of the activity of potential tyrosinase inhibitors. L-DOPA was used as the substrate to test DO activity while L-tyrosine was used to test TH activity. LCAME was incubated in 50 mM phosphate buffer in the presence of mushroom tyrosinase (20 U/mL) at room temperature. After 10 min, L-DOPA or L-tyrosine (1 mM final concentration) were added and the absorbance at 475 nm was measured at different times over 10 min. For comparative purposes the effects of CAME were evaluated as well. Stock methanolic solutions of LCAME or CAME, ranging in concentration from 0.02 to 20 mM concentration were prepared dissolving a proper amount of the compound of interest in methanol. 100 μL of these solutions were added to 2 mL of 50 mM phosphate buffer at pH 6.8 (final concentrations range: 0.001–1 mM), in the presence or in the absence of 20 U/mL mushroom tyrosinase. […] Spectrophotometric analysis was performed by measuring the absorbance at 475 nm for 10 min at 2 min intervals. […] In separate experiments, the assay was run as above with LCAME or CAME at 100 μM, in the presence or absence of L-DOPA, and after 10 min the mixture was analyzed by HPLC.

human tyrosinase [2] = tested on: T1, human tyrosinase; test: TH activity of human tyrosinase; format: biochemical; details: compared with DO activity
T1 construct: endogenous in cells

human tyrosinase [3] = tested on: T2, human tyrosinase; test: Substrate test with HBL cell lysates and MBTH (absorbance at 490 nm); format: biochemical; details: different concentrations, over 1 h
T2 construct: The oxidation of L-DOPA by cell-free HBL cell extracts was monitored spectrophotometrically at 490 nm; endogenous in cells; host or cells: HBL human melanoma cells (detergent-solubilized cell extract)

tyrosinase = test: Tyrosinase expression by Western blot (αPEP7), with or without NDP-MSH; format: cell-based, human
Procedure: Control HBL cells or cells grown in the presence of CAME (25 µM) or LCAME (25 or 50 µM) were stimulated for 48 h with a potent analogue of αMSH ([Nle^4,D-Phe^7]-α-MSH (NDP-MSH), 10^−7 M). Use of the 50 μM concentration of CAME was avoided since this concentration was somewhat cytotoxic as shown above. Expression of tyrosinase was then evaluated by Western blot using a specific antibody directed against tyrosinase (αPEP7). […] However, other mechanisms such as interference with activation and/or functional coupling of the melanocortin 1 receptor responsible for αMSH actions cannot be ruled out and a complete study of these possibilities is beyond the scope of this work. Accordingly, interference of LCAME with MITF expression or activity remains speculative at this stage. In any case, this preliminary observation deserves confirmation using cultured normal human melanocytes and further mechanistic analysis, as it may further support the potential use of LCAME as a skin depigmenting agent. Indeed, LCAME may act at two different levels, on one hand by inhibiting preexisting tyrosinase by a competitive mechanism, and on the other hand by interfering with αMSH-dependent induction of tyrosinase expression.
Figure 5 Effect on tyrosinase expression of CAME (25 µM) and LCAME (25 and 50 µM). HBL melanoma cells were incubated with or without the indicated compounds and stimulated with NDP-MSH (10^−7 M). After 48 h of treatment, tyrosinase levels were compared by Western blotting, performed as described in Materials and Methods. […] For each experimental condition, the fold-increase of tyrosinase abundance upon NDP-MSH treatment relative to the corresponding control was determined by densitometric analysis (ImageJ software) and is shown below the figure.
After protein separation by SDS-PAGE, they were transferred from the gel to the membrane and immunochemical detection with anti-PEP7 was performed as previously described. Briefly, the filters were blocked for 1 h in 2% bovine serum albumin in 1% Tween 20 PBS and incubated overnight at 4 °C with primary antibodies (1:4000 dilution). The filters were washed and further incubated with peroxidase-labeled mouse anti-rabbit IgG (1:5000 dilution). Staining and detection were done with ECL Plus Western Blotting Detection System chemiluminescent substrate (Thermo Fisher Scientific, Waltham, MA, USA). Images were acquired in a Fusion Solo.6S system (Vilber-Lourmat, Marne La Vallée, France). Signal intensities were estimated with ImageJ (National Institutes of Health, Bethesda, […], USA) in independent blots, and normalized with the corresponding loading controls (obtained by staining the membranes with an anti-ERK2 antibody).

mushroom tyrosinase [4] = test: Mushroom tyrosinase DO activity inhibition (dopachrome formation at 475 nm, L-DOPA substrate); format: biochemical; details: LCAME 0.050 μM
Procedure: The inhibition properties of LCAME were preliminarily investigated on mushroom tyrosinase by spectrophotometric monitoring of dopachrome formation, a method which is routinely used for evaluation of the activity of potential tyrosinase inhibitors. L-DOPA was used as the substrate to test DO activity while L-tyrosine was used to test TH activity. LCAME was incubated in 50 mM phosphate buffer in the presence of mushroom tyrosinase (20 U/mL) at room temperature. After 10 min, L-DOPA or L-tyrosine (1 mM final concentration) were added and the absorbance at 475 nm was measured at different times over 10 min. For comparative purposes the effects of CAME were evaluated as well. Stock methanolic solutions of LCAME or CAME, ranging in concentration from 0.02 to 20 mM concentration were prepared dissolving a proper amount of the compound of interest in methanol. 100 μL of these solutions were added to 2 mL of 50 mM phosphate buffer at pH 6.8 (final concentrations range: 0.001–1 mM), in the presence or in the absence of 20 U/mL mushroom tyrosinase. After 10 min incubation at room temperature, 20 μL of a 100 mM solution of L-DOPA or L-tyrosine in 0.6 M HCl, were added (final concentration: 1 mM). Spectrophotometric analysis was performed by measuring the absorbance at 475 nm for 10 min at 2 min intervals. In control experiments, the reaction was run in the absence of LCAME. When required, the experiment was performed as above but adding L-DOP A soon after the addition of LCAME ([…]). In separate experiments, the assay was run as above with LCAME or CAME at 100 μM, in the presence or absence of L-DOPA, and after 10 min the mixture was analyzed by HPLC.

COC(=O)/C=C/c1ccc(O)c(O)c1SCCC(S)CCCCC(=O)O (centres unmarked) [LCAME, 2-S-lipoylcaffeic acid methyl ester]
cytotoxicity (MTT) (HBL cells): nontoxic; also recorded: not cytotoxic | IC50 (mushroom tyrosinase [1]): 830 ± 90 nM | effect on TH activity of human tyrosinase (human tyrosinase [2]): weaker; also recorded: much smaller | change in the absorbance at 490 nm (substrate of human tyrosinase) (human tyrosinase [3]): did not induce any change | NDP-MSH-mediated stimulation of tyrosinase expression (tyrosinase; 25 or 50 µM, NDP-MSH 10^−7 M, 48 h): apparently blocked | basal tyrosinase expression (tyrosinase; HBL cells, CAME 25 µM or LCAME 25 or 50 µM, Western blot): No alteration; also recorded: No significant changes | inhibition of DO activity (mushroom tyrosinase [4]; 10 min pre-incubation): 50 ± 2% | inhibition of DO activity (mushroom tyrosinase [4]; L-DOPA added immediately after LCAME (no pre-incubation)): 42 ± 1%
